Where a SMILES comes first, the peptide text is derived from it.

Data set [1] is described as follows: Cell viability of peritoneal macrophages (MTT reduction). Type of data set: cell-based, Balb/c mice. The following applies: Balb/c, mouse, primary thioglycollate-elicited peritoneal macrophages, 5 μM pre-incubation 18 h, then LPS, read-out: Viability of the cells. The protocol:
Peritoneal elicited cells were obtained from Balb/c mice (CENPALAB, Havana, Cuba). Primary mouse macrophages was collected from the peritoneal cavity 4 days after intraperitoneal injection with 1 ml of 4% Brewer's thioglicollate broth. Cell were maintained in RPMI 1640 supplemented with 10% heat-inactivated fetal bovine serum, 2 mM L-glutamine, 200 units/ml penicillin, and 200 μg/ml streptomycin at 37° C. in 5% CO2/[…].
Assay for Secretion of NO2-(Jin, F^29, Nathan, C, Radzioch, 0, and Ding, A. Cell, 1997, 88: 417-426). Cells were plated in 96-well plates at 2×10^6 cells /ml in 200 μl of medium and incubated at 37° C. for 2 h, then non-adherent cells were removed by repeated washing with PBS. Macrophage were pre-incubated with 5 μM of LALF peptide during 18 h, afterward were washed with RPMI medium in order to eliminated the peptide. Then the macrophages were treated 72 hr with LPS of E. coli 0111:B4, Sigma (1 μg/ml). Cell viability was assessed by mitochondrial-dependent reduction of MTT to formazan (Szabo^30, c, Mitchell, J A, Gross, S S, Thiemermann, C, and Vane, JR. J. Pharm. Exp. Therap., 1992, 265: 674-80). […] Absorbance at 540 nm was recorded in a microplate reader (SUMA) with sodium nitrite as standards (Green^28, L C, Wagner, D A, Glogowski, J, et al. Anal Biochem 1982; 126: 131-8). […]
For orientation: Formazan colour is commonly taken as a measure of viable cells.

In a further data set the test system is TNF-α in mouse serum. Kind of data set: Serum TNF-α after intravenous injection of peptide in mice (ELISA). Type of data set: in vivo, mice BalB/c. The following applies: 50 μg intravenously; serum at 0 h, 6 h, 24 h and 48 h; FIG. 3. The method, then:
(§1) This approach was developed in mice BalB/c between 6-8 old. The mice were injected intravenously with 50 μg of peptide in 0.1 ml [2.5 mg/kg of body weight] or saline solution as a control. The behavior of animals was observed each 4 hours during 24 h. Survival was followed for one week. Blood was collected for TNF-α quantification from the retroorbital sinus at the time 0 h. 6 h, 24 h and 48 h in the control group and peptide treated-mice. The concentration of TNF-α in mouse serum was determined using a specific ELISA kindly provided by Dr. W. Buurman (University Hospital Maastrich, The Netherlands).
In general terms: In an ELISA, binding on a coated surface is turned into a signal by an enzyme label.

In a further data set the test system is Pseudomona aerukinosa. Kind of data set: Survival in mice model of fulminating Gram-negative peritoneal sepsis. Type of data set: in vivo, mice BalB/c. The protocol:
A model of fulminating Gram-negative peritoneal sepsis was developed in mice BalB/c to characterize the efficacy of LALF peptide in protecting an immunologically intact host against serious infections. Groups of mice received LALF peptide (14 μg/0.1 ml) or saline control (0.1 ml) intraperitoneally 20 hours prior to infectious challenge. A doses of Pseudomona aerukinosa (2×10^8 bacterial/mice) producing a total mortality of approximately 90% (Browder et al., 1987, Surgery. Vol. 102: 206-214) was used in order to induce an experimental peritonitis. Survivor's mice were counted each 24 hours during 120 hours after bacterial challenge. Survival data were analyzed by statistical test Kaplan-Meyer, the significance analysis was determined using a long-rank test, table 5. Blood was collected for TNF quantification from the retroorbital sinus at the time 0, 20, 40, 60, 90, 120, 180, 240 min in the control group and peptide treated-mice. The concentration of TNF-α in mouse serum was determined using a specific ELISA kindly provided by. Dr. W. Buurman (University Hospital Maastrich, The Netherlands). FIG. 4.

Data set [2] deals with Mengo virus on cell line Hep-2. The data set can be described thus: Antiviral effect: inhibition of the cytopathic effect of Mengo virus on cell line Hep-2. Type of data set: cell-based. The following applies: for Antiviral effect, 1 / Antiviral effect, 2 / Antiviral effect, 3 / Antiviral effect, Mean: 24 h pre-incubation; for Antiviral effect, 1: experiment 1; for Antiviral effect, 2: experiment 2; for Antiviral effect, 3: experiment 3; for Antiviral effect, Mean: mean of 3. The protocol:
(§2) Then the cells were washed with saline solution and infected with […] of Mengo virus, provide by Institute of Molecular Biology, University of Zurich, which is multiplied in the cell line L929 murine fibroblasts. 18 h later degree of cell destruction was measured by fixation and staining, generally with crystal violet, for reading of cytophatic effect was used a photometer Ultramicroanalytical System (SUMA). A computer program in Pascal UCSD language for the microcomputer system was developed for all calculations and corrections (Ferrero et al., 1994, Biotecnologia Aplicada. Vol. 1:). In this case serial dilution's of human γ-IFN 70 000 IU/ml (MRI, Freeze-dried Reference Human Recombinant Gamma Interferon) was used as standard in order to define unit of antiviral activity. For this reason the antiviral protection shown by the peptide is related to International Units of γ-IFN (Ul/ml). As a negative control were used different peptides from proteins that bind endotoxin. LPS at 10 ng/ml was used as a positively control because is well known that it induced the production of IFNs (Manthey et al., 1994, J. Immunology. Vol. 153: 2653-2663). One unit of antiviral activity is define as the quantity of IFN able to produce an 50% inhibition of the viral replication.

Data set [3] can be described thus: In vivo toxicity after intravenous injection in mice (behavior, survival). Also on record: species or system mice BalB/c. The protocol:
as §1

Another data set deals with human mononuclear cells. Kind of data set: Antiviral effect on Hep-2 cells of supernatant from human mononuclear cells stimulated with peptide. Type of data set: cell-based. The following applies: for Antiviral effect of supernatant, 1: supernatant on Hep-2, experiment 1; for Antiviral effect of supernatant, 2: supernatant on Hep-2, experiment 2; for Antiviral effect of supernatant, 3: supernatant on Hep-2, experiment 3; for Antiviral effect of supernatant, Mean: supernatant on Hep-2, mean of 3. The method, then: as §2
Venous blood was obtained from healthy volunteers and Ficoll-Hypaque centrifugation, fractionated mononuclear cells. The mononuclear cells were washed and resuspended in endotoxin-free RPMI-1640 culture medium supplemented with 10% fetal calf serum. Concentration of 2×10^6 cells/ml were aliquoted into 24-well microtiter plates (Nunc, Denmark). The cells were then incubated with 14 and 28 μg/ml of different peptides: Limulus anti-LPS factor31-52 (LALF), Lipopolysaccharide Binding Protein86-99 (LBP) and 18 kDa Cationic Antimicrobial Protein108-128 (CAP-18), at 37° C. for 18 hours in 5% CO2. The cells were centrifuged at 3000 rpm for 5 min and then serial dilutions of supematants were assays for antiviral activity using the procedures described in the example 2.

[4] abbreviates: mononuclear cells stimulated with 14 μg/ml for 18 h.
The mark [5] stands for this setting: mononuclear cells stimulated with 28 μg/ml for 18 h.

One may read the viability as a per cent measure of how many cells are alive, often set against a control. Turning to `CC[C@H](C)[C@H](NC(=O)[C@H](CCCNC(=N)N)NC(=O)[C@H](Cc1ccc(O)cc1)NC(=O)[C@H](Cc1c[nH]cn1)NC(=O)[C@@H](N)CS)C(=O)N[C@@H](CCCCN)C(=O)N1CCC[C@H]1C(=O)N[C@H](C(=O)N[C@@H](Cc1ccccc1)C(=O)N[C@@H](CCCNC(=N)N)C(=O)N[C@@H](CCCNC(=N)N)C(=O)N[C@@H](CC(C)C)C(=O)N[C@@H](CCCCN)C(=O)N[C@@H](Cc1c[nH]c2ccccc12)C(=O)N[C@@H](CCCCN)C(=O)N[C@@H](Cc1ccc(O)cc1)C(=O)N[C@@H](CCCCN)C(=O)NCC(=O)N[C@@H](CCCCN)C(=O)N[C@@H](Cc1ccccc1)C(=O)N[C@@H](Cc1c[nH]c2ccccc12)C(=O)N[C@@H](CS)C(=O)O)[C@@H](C)O` [LALF] (H-CHYRIKPTFRRLKWKYKGKFWC-OH), the viability at 18 h, 5 µM in data set [1] is at least 98%. Also, the “TNF-α production in vivo (in words)” value with TNF-α in mouse serum was “does not stimulate TNF-α production”. The “Survival (%)” value in the data set with Pseudomona aerukinosa (14 μg/0.1 ml intraperitoneally 20 hours prior to challenge with 2×10^8 bacteria/mouse, followed 120 hours) worked out at 36%. The “Protection from lethal bacterial challenge (in words)” value with Pseudomona aerukinosa (administrated prophylactically) is listed as “protects mice from lethal bacterial challenge”. Besides, the “Induction of an antiviral state in Hep-2 cells (in words)” value in data set [2] (14 and 28 μg/ml) was “able to induce an antiviral state”. Besides, in data set [2] (Hep-2, 14 μg/ml), the “Antiviral effect, 1” value was 35 IU/ml γ-IFN; the “Antiviral effect, 2” value stood at 31.7 IU/ml γ-IFN; the “Antiviral effect, 3” value is recorded as 22 IU/ml γ-IFN; the “Antiviral effect, Mean” value is given as 29.5 IU/ml γ-IFN. In addition, in data set [2] (Hep-2, 28 μg/ml), the “Antiviral effect, 1” value was 28.7 IU/ml γ-IFN; the “Antiviral effect, 2” value came to 27 IU/ml γ-IFN; the “Antiviral effect, 3” value was 31.4 IU/ml γ-IFN; the “Antiviral effect, Mean” value stood at 28.3 IU/ml γ-IFN. Besides, the “Toxicity in vivo (in words)” value in data set [3] (50 μg [2.5 mg/kg] intravenously) is given as “not toxic in vivo”. For the same molecule, in data set [3] (50 μg in 0.1 ml [2.5 mg/kg] intravenously, followed one week), the “Survival after intravenous injection (in words)” value was “All mice [10 animals/group] survivor beyond of one week”. In the data set with human mononuclear cells (14 and 28 μg/ml, 18 h), the “Release of protective mediator by human peripheral blood mononuclear cells (in words)” value is “induce them to release certain mediator capable of conferring protection to the Hep-2 cells against viral infections”. In the data set on human mononuclear cells (setting [4]), the “Antiviral effect of supernatant, 1” value turned out to be 28 IU/ml γ-IFN; the “Antiviral effect of supernatant, 2” value turned out to be 27.6 IU/ml γ-IFN; the “Antiviral effect of supernatant, 3” value stood at 20.4 IU/ml γ-IFN; the “Antiviral effect of supernatant, Mean” value came to 25.3 IU/ml γ-IFN. Moreover, in the data set on human mononuclear cells (setting [5]), the “Antiviral effect of supernatant, 1” value is reported as 28.4 IU/ml γ-IFN; the “Antiviral effect of supernatant, 2” value amounted to 28 IU/ml γ-IFN; the “Antiviral effect of supernatant, 3” value is on record as 20 IU/ml γ-IFN; the “Antiviral effect of supernatant, Mean” value is listed as 25.4 IU/ml γ-IFN.

The values above are taken from patent US6632793B1, “Immunological activity for a peptide of the limulus anti-LPS factor” (Centro de Ingenieria Genetica y Biotecnologia, priority 1997, dated 2003).
